Tests used:
Format in all cases: cell-based
MCF-7 breast tumor cells = assay: Microscope observation of treated MCF-7 cells
Procedure: A cell viability test was performed on MCF-7 (Michigan Cancer Foundation-7) breast tumor cells […] (ER(+) cells).
The MCF-7 cells are in a cell culture medium identical to that of Example 5 and are seeded in 12-well plates at 50 000 cells per well. 24 hours after seeding, the cells are treated with vehicle solvate comprising water and ethanol with a 1% o ratio of ethanol, 3β-fluoro-5α-hydroxy-6β-[2-(1H-imidazol-4-yl)ethylamino]cholestane, and 5α-hydroxy-6β-[2-(1H-imidazol-4-yl)ethylamino]cholestan-3β-ol at 1, 2.5 or 5 μM. The cells are observed under an inverted microscope and photographed via the microscope camera at 24 h and 48 h. The morphological changes in the cells at 1 μM are very small. […] The effects are more marked at 2.5 μM and 5 μM with an increase in the number of dead cells. […] After 24 h of treatment with 3β-fluoro-5α-hydroxy-6β-[2-(1H-imidazol-4-yl)ethylamino]-cholestane at 5 μM, 99% of the observed cells are supernatant, reflecting cell death, and 1% of the cells are adherent and show white vesicles. […] The cytostatic effect is illustrated by an inhibition of cell proliferation.

[1] = system: Neuro2a (murine neuroblastoma) cells; assay: Cytotoxicity on Neuro2a cells, trypan blue test; conditions: 48 h
Procedure: For this experiment, a cell culture medium was prepared. The culture medium consisted of Dulbecco's Modified Eagle Medium (DMEM, sold by Westburg under the reference LO BE12-604F), comprising 4.5 g/L glucose with L-glutamine, to which 10% fetal calf serum (FCS) is added. Neuro2a (murine neuroblastoma) cells are introduced into this culture medium.
24-well dishes were seeded with 10 000 Neuro2a cells per well. After 72 hours (h) of culture under normal conditions, i.e., in an incubator at 37° C. with 5% CO2, the Neuro2a cells were treated for 48 h with 3β-fluoro-5α-hydroxy-6β-[2-(1H-imidazol-4-yl)ethylamino]-cholestane and 5α-hydroxy-6β-[2-(1H-imidazol-4-yl)ethylamino]cholestan-3β-ol at 100 nM, 1 μM and 10 μM. A control (CTL) is also performed using the previously described protocol without treatment with […]-5α-hydroxy-6β-[2-(1H-imidazol-4-yl)ethylamino]-cholestane and 5α-hydroxy-6β-[2-(1H-imidazol-4-yl)ethylamino]cholestan-3β-ol. The cell survival was quantified by means of a trypan blue test with automatic counting using the Biorad TC20 machine (TC20™ Automated Cell Counter). The trypan blue test is based on the integrity of cell membranes, which is disrupted in the dead cells. Trypan blue stains dead cells blue. The Biorad TC20 cell counter counts the proportion of blue and non-blue cells, and reports the percentage of cells. The results are represented in FIG. 1.

[2] = target: T1, Cholesterol Epoxide Hydrolase (ChEH) (Homo sapiens, UniProt Q15125+Q9UBM7); assay: Cholesterol Epoxide Hydrolase (ChEH) activity in MCF-7 cells, [14C]5,6α-EC metabolism by TLC; conditions: 1 μM, 24 h, [14C]5,6α-EC 0.6 μM
T1 construct: endogenous in cells; host or cells: MCF-7
T1 sequence (Q15125 whole entry): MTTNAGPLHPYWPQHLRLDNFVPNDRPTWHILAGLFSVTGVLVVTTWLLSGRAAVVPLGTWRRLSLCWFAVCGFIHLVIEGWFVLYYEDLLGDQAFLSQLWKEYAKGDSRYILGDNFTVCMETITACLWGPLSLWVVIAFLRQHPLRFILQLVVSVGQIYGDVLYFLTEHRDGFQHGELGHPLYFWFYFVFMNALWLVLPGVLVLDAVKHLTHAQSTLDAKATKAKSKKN
T1 sequence (Q9UBM7 whole entry): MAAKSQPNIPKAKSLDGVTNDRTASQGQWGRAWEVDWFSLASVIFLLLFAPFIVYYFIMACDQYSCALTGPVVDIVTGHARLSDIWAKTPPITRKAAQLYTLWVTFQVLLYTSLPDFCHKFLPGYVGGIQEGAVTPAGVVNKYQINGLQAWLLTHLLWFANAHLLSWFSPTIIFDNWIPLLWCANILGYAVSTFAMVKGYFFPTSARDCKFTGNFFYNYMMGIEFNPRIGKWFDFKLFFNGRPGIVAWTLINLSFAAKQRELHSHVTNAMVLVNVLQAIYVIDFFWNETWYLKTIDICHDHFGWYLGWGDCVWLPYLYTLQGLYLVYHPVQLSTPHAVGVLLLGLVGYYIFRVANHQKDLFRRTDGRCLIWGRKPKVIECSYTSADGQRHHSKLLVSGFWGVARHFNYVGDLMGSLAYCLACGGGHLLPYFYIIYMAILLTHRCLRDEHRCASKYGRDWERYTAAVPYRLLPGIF
Excerpt: The compounds 5,6α-epoxycholesterol (5,6α-EC) and 5,6p-epoxycholesterol (5,6p-EC) are oxysterols involved in the anticancer pharmacology of tamoxifen, a widely used antitumor drug. Both are metabolized to cholestane-3β,5α,6β-triol (CT) by the enzyme cholesterol-5,6-epoxide hydrolase (ChEH), and CT is metabolized by the enzyme HSD11B2 (11β-hydroxysteroid dehydrogenase 2) to 6-oxocholestane-3β,5α-diol (OCDO), a tumor-promoting oncosterone.
MCF-7 cells are in a cell culture medium identical to that of Example 5 and are seeded in 6-well plates at 150 000 cells per well with three wells per treatment condition. […] Tamoxifen is used as a positive control for 3α-fluoro-5α-hydroxy-6β-[2-(1H-imidazol-4-yl)ethylamino]cholestane and 5α-hydroxy-6β-[2-(1H-imidazol-4-yl)ethylamino]cholestan-3β-ol (1 μM for all molecules).
After 24 hours of treatment, the media are collected and lipid extracts are prepared from the cell pellets by extraction with 100 μL of chloroform, 400 μL of methanol, and 300 μL of water.
The lipid extracts are analyzed by thin layer chromatography (TLC) using ethyl acetate (EtOAc) as eluent. The analysis is performed with a plate reader and then by autoradiography.

Row | Structure (SMILES) | morphological changes in the cells (MCF-7 breast tumor cells; 1 μM, 24 h) | percentage of cell survival relative to the control group ([1]; 100 nM) | percentage of cell survival relative to the control group ([1]; 1 μM) [%] | percentage of cell survival relative to the control group ([1]; 10 μM) [%] | morphological changes in the cells (MCF-7 breast tumor cells; 2.5 μM, 24 h) | cytostatic effect compared with 24 h (MCF-7 breast tumor cells; 2.5 μM, 48 h) | cells that are adherent and show white vesicles (MCF-7 breast tumor cells; 5 μM, 24 h) [%] | observed cells that are supernatant (cell death) (MCF-7 breast tumor cells; 5 μM, 24 h) [%] | morphological changes in the cells (MCF-7 breast tumor cells; 5 μM, 48 h) | effect compared with 5α-hydroxy-6β-[2-(1H-imidazol-4-yl)ethylamino]cholestan-3β-ol (MCF-7 breast tumor cells; 24 h of observation) | effect compared with 5α-hydroxy-6β-[2-(1H-imidazol-4-yl)ethylamino]cholestan-3β-ol (MCF-7 breast tumor cells; 48 h of observation) | inhibition of ChEH activity [2]
1 | CC(C)CCC[C@@H](C)[C@H]1CC[C@H]2[C@@H]3C[C@@H](NCCc4c[nH]cn4)[C@@]4(O)C[C@@H](O)CC[C@]4(C)[C@H]3CC[C@]12C [DX101, 5α-hydroxy-6β-[2-(1H-imidazol-4-yl)ethylamino]cholestan-3β-ol, reference compound] | Only a few white vesicles | – | – | – | – | – | – | – | – | – | – | –
2 | CC(C)CCC[C@@H](C)[C@H]1CC[C@H]2[C@@H]3C[C@@H](NCCc4c[nH]cn4)[C@@]4(O)C[C@@H](F)CC[C@]4(C)[C@H]3CC[C@]12C [DX111, 3β-fluoro-5α-hydroxy-6β-[2-(1H-imidazol-4-yl)ethylamino]cholestane] | Only a few white vesicles | unchanged | 75 | 30 | numerous white vesicles and detached cells | stronger cytostatic effect | 1 | 99 | all the cells are supernatant | greater or equal effect | similar | almost total inhibition
